{"source": "patent US10603298B2", "about": "“Succinate dehydrogenase inhibitors (SDHi's)” (Medical Research Council, priority 2014, dated 2020)", "key": {"[1]": {"system": "mouse heart IR injury (myocardial infarction)", "experiment": "In vivo mouse cardiac IR injury (LAD ligation), infarct size by triphenyltetrazolium chloride staining", "conditions": "i.v. infusion 4 mg/kg/min prior to and throughout ischaemia", "protocol": "For the in vivo heart IR model an open-chest, in situ heart model was used^31,32. Male mice (8-10 weeks; Charles River Laboratories, UK) were anaesthetised with sodium pentobarbital (70 mg/kg intraperitoneally (i.p.)), intubated endotracheally and ventilated with 3 cm H2O positive-end expiratory pressure. Adequacy of anaesthesia was monitored using corneal and withdrawal reflexes. Ventilation frequency was kept at 110 breaths per minute with tidal volume between 125-150 μL. A thoracotomy was performed and the heart exposed by stripping the pericardium. A prominent branch of the left anterior descending coronary artery (LAD) was surrounded by a 7-0 Prolene suture that was then passed through a small plastic tube. Ischaemia was induced by tightening the tubing against the heart surface. To assess metabolites during IR in vivo, mice were divided into three groups: 30 min ischaemia, 30 min ischaemia plus 5 min reperfusion and 30 min sham-operation in which the suture was placed but the LAD was not occluded. At the end of each protocol tissue was removed from the at risk and peripheral areas of the heart, selected visually by comparing white versus red tissue, and snap-frozen in liquid nitrogen. […] Infarct size was assessed after 30 min of ischaemia followed by 120 min reperfusion using 2% triphenyltetrazolium chloride staining and is expressed as a percentage of the risk zone^33. […]"}, "[2]": {"system": "adult primary rat cardiomyocytes", "experiment": "ROS production (DHE oxidation) in adult primary cardiomyocytes during in situ IR", "type": "cell-based", "conditions": "40 min ischaemia then reoxygenation, 4 mM in ischaemic buffer", "protocol": "FIG. 13: Tracking cardiomyocytes ROS levels in primary cardiomyocytes during in situ IR. Primary rat cardiomyocytes were subjected to 40 min ischaemia and reoxygenation with ROS levels tracked throughout the experiment by ratiometric measurement of dihydroethidium (DHE) oxidation. […] Representative traces of each condition are shown. The highlighted window indicates the period of the experiment expanded in detail in FIG. 3.a.\nMale Sprague-Dawley rats (300-370 g) were terminally anaesthetised via IP injections of 200 mg/kg sodium pentobarbitone and 330 U/kg heparin. Hearts were excised and retrograde perfused on a Langendorff-perfusion system with 13 mL/min oxygenated KH buffer at 37° C. Cells were isolated by collagenase digestion using standard methods^41. […]\nCells were imaged within 36 hours of plating. […] Simulated ischaemia was achieved by replacing the buffer with a pre-gassed, hypoxic recording buffer simulating ischaemia (as above but lacking glucose and containing 10 mM sodium lactate, 14.8 mM KCl; pH 6.4) and by covering the heated stage with a transparent, gas-impermeant lid, forming a small chamber into which argon was forced to maintain hypoxia. pO2 was routinely measured as <2.0 mm Hg during simulated ischaemia. […]\nROS production was estimated by oxidation of DHE. […] All measured cell parameters were analysed with Fiji image processing software."}}}
{"smiles": "COC(=O)CC(=O)OC", "note": "[dimethyl malonate]", "values": [{"measurement": "protection against cardiac IR injury (infarct size)", "setting": "[1]", "result": "protective"}, {"measurement": "ROS production / DHE oxidation upon reperfusion", "setting": "[2]", "result": "reduced DHE oxidation upon reperfusion"}]}
